Read-outs that look alike come from different tables or passages of the source.
Legend:
Bmi1 = biological target: T1, Bmi1 (Mus musculus, UniProt P25916); assay: Western blot analysis of Bmi1, wild type and CCM3 knock out immortalized lung endothelial cells; format: cell-based; settings: 24 hours of treatment, 1 uM PTC209 vs DMSO
T1 construct: western blot analysis of Bmi1 on lysates from confluent wild type (WT) and CCM3 knockout (CCM3-KO) cells treated with PTC209; endogenous in cells; host or cells: immortalized mouse lung endothelial cells, wild type and CCM3 knock out (VECPAC/CCM3 fl/fl, TAT-Cre)
T1 sequence (P25916 1-324): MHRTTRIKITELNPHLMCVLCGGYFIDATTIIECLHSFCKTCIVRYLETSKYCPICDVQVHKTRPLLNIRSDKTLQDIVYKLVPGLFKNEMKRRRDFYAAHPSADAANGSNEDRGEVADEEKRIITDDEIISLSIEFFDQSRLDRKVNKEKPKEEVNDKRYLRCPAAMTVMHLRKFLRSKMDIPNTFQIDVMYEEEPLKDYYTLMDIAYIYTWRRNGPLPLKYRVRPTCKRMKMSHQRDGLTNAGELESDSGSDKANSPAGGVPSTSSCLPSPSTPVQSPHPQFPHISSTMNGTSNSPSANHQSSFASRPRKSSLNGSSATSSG
Protocol: Confluent cells were lysed with boiling modified Laemi sample Buffer (2% SDS, 20% glycerol, and 125 mM Tris-HCl, pH 6.8). Lysates were incubated for 10 minutes at 100° C. to allow proteins denaturation. Protein concentration was estimated using the BCA Protein Assay Kit (Pierce). Equal amount of proteins was loaded on a gel, separated by SDS-PAGE and transferred to a Protran Nitrocellulose Membrane (Whatman) 0.2 um pores. The membranes were blocked for 1 hour at RT in Tris Buffered Saline (TBS: NaCl 150 mM, Tris-HCl 10 mM pH 7.4) plus 0.1% Tween-20 containing 5% BSA or milk. The membranes were incubated with primary antibodies diluted in TBST (TBS plus 0.1% Tween-20) containing 5% of either BSA or milk overnight at 4° C. Next, membranes were rinsed three times with TBST for 5 minutes each and incubated for 45 minutes at RT with HRP-linked secondary antibodies diluted in TBST containing 5% BSA/milk. Membranes were rinsed three times with TBST for 5 minutes each and specific bindings were detected by enhanced chemiluminescence (ECL) system (Amersham Bioscience) using ChemiDoc XRS gel imaging system (Bio-Rad).
CCM3 knock out cells were immortalized lung endothelial cells derived from VECPAC/CCM3^fl/fl mice, treated with TAT-Cre recombinase. […] As control the same cell line without TAT-Cre treatment were used. […]

[1] = system: EndMT markers (Klf4, Sca1 and Fsp1); assay: Real time (RT-PCR) analysis of EndMT markers, wild type and CCM3 knock out immortalized lung endothelial cells; format: cell-based, mouse; settings: 72 hours
Protocol: (§1) Cells were seeded 6.3×10^4 cells/cm^2. The day after, PTC209 and UNC1999 were added to the confluent cells. Drugs were left for one or three days depending on the aim of the experiment. Final concentrations used for the two drugs were: 1 uM PTC209 and 5 uM UNC1999.
(§2) RNA extraction was performed both with (A) RNeasy kits (Promega) or (B) RNAeasy Mini Kit (QIAGEN). The latter allows also the extraction of proteins from the same sample. The RNA (500 ng) was reverse transcribed with random hexamers (High Capacity cDNA Archive kits; Applied Biosystems) in a final volume of 30 uL. Reaction were made with a thermocycler (Eppendorf) 10 min at 25° C. followed by 2 hours at 37° C. cDNA (5 ng) was amplified in triplicate in a reaction volume of 15 uL using TaqMan Gene Expression Assays (Applied Biosystems) in a ABI/Prism 7900 HT using a pre PCR step of 10 min at 95° C., followed by 40 cycles of 15 seconds at 95° C. and 60 seconds at 60° C. For each sample, the expression level was determined with the comparative threshold cycle (Ct) method, and normalized to the housekeeping genes encoding 18S, glyceraldehyde-3-phosphate dehydrogenase (GAPDH) and hypoxanthine-guanine phosphoribosyltransferase (hprt1). Ct or threshold cycle, represents the PCR cycle at which an increase in reporter fluorescence above a base-line signal can first be detect.
Wild type and CCM3 knock out cells were treated with either PTC209 or DMSO starting from the day after seeding, when cells were confluent. For this experiment cells were lysed for western blot and real-time analysis after 72 hours of treatment to check a long-term effect of PTC209.
To perform these experiments, immortalized lung endothelial cells both wild type and CCM3 knock out were treated, with the same experimental strategy used for PTC209, with UNC1999 for 72 hours and subsequently lysed for western blot and real time analysis. UNC1999 was used in its specific optimal concentration, which was different to PTC209. As control DMSO was given to the cells in a volume equal to the volume of DMSO in which UNC1999 was previously dissolved to rich the optimal concentration.
Briefly, wild type and CCM3 knock out cells were treated with either PTC209, UNC1999 or a combination of the two. PTC209 and UNC1999 were administrated at the same concentration used for the single treatment and DMSO was given as control in a volume equal to the sum of volumes of DMSO in which UNC1999 and PTC209 were previously dissolved.

CCM3 knock out cells = format: cell-based, mouse
Protocol: as §1
For immunofluorescence, cells were fixed in three different ways: with 4% PAF in PBS (followed by permeabilization with 0.5% Triton X-100 for 5 minutes); with 1% PAF in triethanolamine pH 7.5, containing 0.1% Triton X-100 and 0.1% NP-40 for 10 minutes at RT or in methanol for 5 minutes at […]. Blocking (1 hour, RT) were performed in PBS containing 2% BSA and 5% donkey serum. Primary (overnight, 4° C.) and secondary (50 minutes, RT) antibodies were incubated in PBS with 2% BSA.
To check the effect of Bmi1 on junctional organisation, both wild type and CCM3 knock out cells were treated with PTC209 with the same experimental conditions described before and subsequently analysed by immunofluorescence. In particular cells were stained for VE-cadherin and PECAM1 (FIG. 7).
Experiment with combined PTC209 and UNC1999 treatments was repeated with the same experimental conditions described before and junction organisation was analysed through VE-cadherin staining and protein expression analysis (FIG. 19).

VE-cadherin and PECAM1 = assay: Real time analysis of VE-cadherin and Pecam1 transcripts, CCM1 knock out cells; format: cell-based, mouse; settings: PTC209
Protocol: as §2
Also for CCM1 model, the inventors tested the effect of Bmi1 inhibition on junction organisation. […]

With `COc1cc(Br)c(Nc2nc(-c3c(C)nc4ncccn34)cs2)c(Br)c1` [PTC209, N-(2,6-dibromo-4-methoxyphenyl)-4-(2-methylimidazo[1,2-a]pyrimidin-3-yl)thiazol-2-amine] the “Bmi1 protein expression (western blot)” value (Bmi1; CCM3 knock out cells) was “downregulation of Bmi1”, the “Bmi1 protein expression (western blot)” value (Bmi1; wild type cells) was “downregulation of Bmi1” and the “Klf4 transcript up-regulation induced by CCM3 deletion (real time analysis)” value ([1]; CCM3 knock out cells) was “completely rescued”. For the same molecule, the “Klf4, Sca1 and Fsp1 transcripts (real time analysis)” value ([1]; CCM3 knock out cells, 1 uM PTC209, 5 uM UNC1999, vs DMSO) was “downregulated”, the “Klf4 transcript (real time analysis)” value ([1]; wild type cells (physiological condition), CCM3 model) was “not affected” and the “junctional organisation (VE-cadherin, PECAM1 immunostaining)” value (CCM3 knock out cells; CCM3 knock out cells) was “did not rescue junctional disorganisation”. For the same molecule, the “junctional organisation (VE-cadherin, PECAM1 immunostaining)” value (CCM3 knock out cells; wild type cells, CCM3 model) was “did not disturb junction organisation” and the “VE-cadherin and PECAM1 transcript levels (gene expression analysis)” value (VE-cadherin and PECAM1) was “did not show any rescue”.

From patent publication US12377092B2, “Polycomb inhibitors and uses thereof” (FONDAZIONE ISTITUTO FIRC DI ONCOLOGIA MOLECOLARE (IFOM), priority 2017, dated 2025)
